Drawing on US10870647B2, “Imidazopyridine derivative, method for preparing same, and pharmaceutical composition containing same as active ingredient for preventing or treating cancer” (DAEGU-GYEONGBUK MEDICAL INNOVATION FOUNDATION, priority 2016, dated 2020), this text covers remaining binding for three compounds.

Holding throughout (test): Kinase selectivity, scanMAX Kinase assay panel (DiscoverX), % control at 1 uM
Holding throughout (assay type): binding

The target in assay [1] is T1, scanMAX Kinase assay panel (Homo sapiens, UniProt P08581, Y1235D).
T1 construct: purchased DiscoverX
T1 sequence (P08581 25-1390 Y1235D): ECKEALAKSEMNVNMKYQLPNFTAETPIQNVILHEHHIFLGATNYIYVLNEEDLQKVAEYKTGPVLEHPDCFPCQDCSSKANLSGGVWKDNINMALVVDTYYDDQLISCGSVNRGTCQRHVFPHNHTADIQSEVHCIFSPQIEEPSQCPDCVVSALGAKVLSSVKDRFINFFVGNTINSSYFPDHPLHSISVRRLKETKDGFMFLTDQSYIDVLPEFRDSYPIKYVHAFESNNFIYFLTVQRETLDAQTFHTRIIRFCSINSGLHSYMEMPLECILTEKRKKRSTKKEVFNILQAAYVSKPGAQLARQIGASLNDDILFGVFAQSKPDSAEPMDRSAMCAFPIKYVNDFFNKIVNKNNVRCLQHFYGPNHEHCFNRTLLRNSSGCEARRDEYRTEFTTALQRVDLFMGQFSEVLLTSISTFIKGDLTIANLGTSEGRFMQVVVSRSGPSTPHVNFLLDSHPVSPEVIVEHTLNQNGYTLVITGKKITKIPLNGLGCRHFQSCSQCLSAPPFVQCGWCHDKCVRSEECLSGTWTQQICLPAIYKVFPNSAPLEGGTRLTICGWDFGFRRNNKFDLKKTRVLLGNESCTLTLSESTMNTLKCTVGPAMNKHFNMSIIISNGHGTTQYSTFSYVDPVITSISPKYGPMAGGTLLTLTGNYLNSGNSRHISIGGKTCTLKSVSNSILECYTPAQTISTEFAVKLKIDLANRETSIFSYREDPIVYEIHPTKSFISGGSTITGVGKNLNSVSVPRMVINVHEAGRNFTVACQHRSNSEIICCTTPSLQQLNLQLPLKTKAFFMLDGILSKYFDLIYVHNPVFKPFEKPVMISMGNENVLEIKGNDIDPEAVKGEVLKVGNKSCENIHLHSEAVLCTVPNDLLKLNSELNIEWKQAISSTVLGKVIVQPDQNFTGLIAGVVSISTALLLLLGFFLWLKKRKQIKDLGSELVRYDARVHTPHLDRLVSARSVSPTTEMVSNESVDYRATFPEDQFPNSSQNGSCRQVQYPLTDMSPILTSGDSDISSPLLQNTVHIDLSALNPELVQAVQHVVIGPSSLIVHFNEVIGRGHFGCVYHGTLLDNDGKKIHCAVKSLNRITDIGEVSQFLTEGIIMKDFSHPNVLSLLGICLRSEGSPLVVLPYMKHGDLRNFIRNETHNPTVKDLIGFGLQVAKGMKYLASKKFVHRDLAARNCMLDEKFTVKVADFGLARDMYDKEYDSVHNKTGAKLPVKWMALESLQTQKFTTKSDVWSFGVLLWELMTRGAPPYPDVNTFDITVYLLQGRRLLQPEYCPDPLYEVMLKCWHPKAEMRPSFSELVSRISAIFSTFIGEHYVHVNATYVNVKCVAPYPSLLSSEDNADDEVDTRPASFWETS
Particulars: MET (Y1235D); 1 uM; read-out: Percent Control (%). In outline:
(§1)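 Single-point screen at 1 uM compound in DMSO. Lower % control means stronger inhibition, with the cutoff for activity set at <35%.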

For assay [2], the target named is T2, scanMAX Kinase assay panel (Homo sapiens, UniProt Q9HAZ1).
T2 construct: purchased DiscoverX
T2 sequence (Q9HAZ1 whole entry): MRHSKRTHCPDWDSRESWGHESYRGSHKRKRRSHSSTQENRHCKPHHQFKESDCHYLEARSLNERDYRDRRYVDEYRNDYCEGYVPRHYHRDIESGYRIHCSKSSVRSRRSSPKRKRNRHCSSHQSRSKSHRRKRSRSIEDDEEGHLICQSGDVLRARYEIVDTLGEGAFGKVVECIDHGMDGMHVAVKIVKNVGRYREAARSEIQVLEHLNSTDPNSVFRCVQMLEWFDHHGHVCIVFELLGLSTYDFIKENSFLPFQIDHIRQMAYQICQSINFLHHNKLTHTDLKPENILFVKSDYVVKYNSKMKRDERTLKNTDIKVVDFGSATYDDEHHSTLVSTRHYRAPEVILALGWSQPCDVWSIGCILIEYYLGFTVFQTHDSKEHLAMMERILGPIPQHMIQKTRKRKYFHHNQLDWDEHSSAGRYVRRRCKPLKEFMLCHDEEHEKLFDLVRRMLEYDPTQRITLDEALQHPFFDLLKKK
Particulars: CLK4; 1 uM; read-out: Percent Control (%). In outline:
as §1

The target in assay [3] is T3, scanMAX Kinase assay panel (Homo sapiens, UniProt Q9BX84).
T3 construct: purchased DiscoverX
T3 sequence (Q9BX84 whole entry): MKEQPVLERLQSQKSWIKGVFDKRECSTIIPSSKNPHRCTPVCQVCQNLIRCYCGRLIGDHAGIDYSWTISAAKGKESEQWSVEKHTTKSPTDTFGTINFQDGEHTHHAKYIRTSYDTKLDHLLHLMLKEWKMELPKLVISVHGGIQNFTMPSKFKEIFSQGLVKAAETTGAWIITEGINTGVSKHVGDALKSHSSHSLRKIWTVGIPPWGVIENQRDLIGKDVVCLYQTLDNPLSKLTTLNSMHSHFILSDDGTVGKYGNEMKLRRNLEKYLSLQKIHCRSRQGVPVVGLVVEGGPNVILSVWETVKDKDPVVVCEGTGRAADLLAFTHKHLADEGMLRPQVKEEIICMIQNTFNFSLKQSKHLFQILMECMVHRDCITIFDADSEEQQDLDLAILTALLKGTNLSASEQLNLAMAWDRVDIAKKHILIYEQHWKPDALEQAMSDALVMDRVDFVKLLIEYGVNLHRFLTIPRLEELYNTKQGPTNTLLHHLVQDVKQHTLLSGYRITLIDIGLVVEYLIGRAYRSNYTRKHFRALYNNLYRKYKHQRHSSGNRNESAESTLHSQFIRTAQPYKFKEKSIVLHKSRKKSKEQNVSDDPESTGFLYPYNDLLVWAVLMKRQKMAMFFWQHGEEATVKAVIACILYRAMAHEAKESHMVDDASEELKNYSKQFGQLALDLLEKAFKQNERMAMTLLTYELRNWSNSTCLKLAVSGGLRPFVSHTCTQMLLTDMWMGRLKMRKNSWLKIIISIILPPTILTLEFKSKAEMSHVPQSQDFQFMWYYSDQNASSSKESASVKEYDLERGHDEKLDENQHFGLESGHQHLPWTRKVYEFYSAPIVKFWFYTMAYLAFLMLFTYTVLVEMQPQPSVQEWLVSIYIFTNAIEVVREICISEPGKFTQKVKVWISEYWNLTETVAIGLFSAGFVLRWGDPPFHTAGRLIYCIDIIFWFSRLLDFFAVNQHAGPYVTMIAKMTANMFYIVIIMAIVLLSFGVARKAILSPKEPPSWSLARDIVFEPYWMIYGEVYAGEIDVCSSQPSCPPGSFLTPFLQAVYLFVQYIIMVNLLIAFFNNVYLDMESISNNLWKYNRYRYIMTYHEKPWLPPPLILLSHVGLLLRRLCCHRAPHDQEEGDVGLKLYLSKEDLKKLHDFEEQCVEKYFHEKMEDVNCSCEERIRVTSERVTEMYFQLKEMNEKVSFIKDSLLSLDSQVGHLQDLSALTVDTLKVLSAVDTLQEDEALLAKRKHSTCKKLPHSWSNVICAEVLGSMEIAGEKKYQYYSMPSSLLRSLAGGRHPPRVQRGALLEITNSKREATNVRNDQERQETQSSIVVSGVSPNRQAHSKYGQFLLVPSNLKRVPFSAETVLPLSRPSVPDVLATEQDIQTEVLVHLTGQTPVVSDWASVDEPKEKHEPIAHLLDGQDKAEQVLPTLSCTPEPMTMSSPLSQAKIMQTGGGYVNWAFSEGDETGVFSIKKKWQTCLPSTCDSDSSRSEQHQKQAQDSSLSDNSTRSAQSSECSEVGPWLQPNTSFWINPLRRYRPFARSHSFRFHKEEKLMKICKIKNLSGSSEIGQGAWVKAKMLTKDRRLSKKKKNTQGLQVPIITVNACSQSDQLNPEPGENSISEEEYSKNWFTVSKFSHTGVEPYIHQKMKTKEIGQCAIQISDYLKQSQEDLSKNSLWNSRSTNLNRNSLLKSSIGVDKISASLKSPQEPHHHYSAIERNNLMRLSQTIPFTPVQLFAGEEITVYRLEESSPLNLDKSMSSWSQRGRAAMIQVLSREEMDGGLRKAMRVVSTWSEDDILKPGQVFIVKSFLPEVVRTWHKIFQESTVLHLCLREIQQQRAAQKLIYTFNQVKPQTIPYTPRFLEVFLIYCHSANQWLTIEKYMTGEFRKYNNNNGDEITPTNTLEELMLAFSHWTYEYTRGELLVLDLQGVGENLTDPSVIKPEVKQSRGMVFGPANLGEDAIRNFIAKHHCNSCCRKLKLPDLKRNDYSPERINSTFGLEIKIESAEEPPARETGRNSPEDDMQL
Particulars: TRPM6; 1 uM; read-out: Percent Control (%). Summed up: as §1

For assay [4], the target named is T4, scanMAX Kinase assay panel (Homo sapiens, UniProt Q96J92).
T4 construct: purchased DiscoverX
Particulars: WNK4; 1 uM; read-out: Percent Control (%). Summed up: as §1

The target in assay [5] is T5, scanMAX Kinase assay panel (Homo sapiens, UniProt P00519, F317L).
T5 construct: purchased DiscoverX
T5 sequence (P00519 whole entry F317L): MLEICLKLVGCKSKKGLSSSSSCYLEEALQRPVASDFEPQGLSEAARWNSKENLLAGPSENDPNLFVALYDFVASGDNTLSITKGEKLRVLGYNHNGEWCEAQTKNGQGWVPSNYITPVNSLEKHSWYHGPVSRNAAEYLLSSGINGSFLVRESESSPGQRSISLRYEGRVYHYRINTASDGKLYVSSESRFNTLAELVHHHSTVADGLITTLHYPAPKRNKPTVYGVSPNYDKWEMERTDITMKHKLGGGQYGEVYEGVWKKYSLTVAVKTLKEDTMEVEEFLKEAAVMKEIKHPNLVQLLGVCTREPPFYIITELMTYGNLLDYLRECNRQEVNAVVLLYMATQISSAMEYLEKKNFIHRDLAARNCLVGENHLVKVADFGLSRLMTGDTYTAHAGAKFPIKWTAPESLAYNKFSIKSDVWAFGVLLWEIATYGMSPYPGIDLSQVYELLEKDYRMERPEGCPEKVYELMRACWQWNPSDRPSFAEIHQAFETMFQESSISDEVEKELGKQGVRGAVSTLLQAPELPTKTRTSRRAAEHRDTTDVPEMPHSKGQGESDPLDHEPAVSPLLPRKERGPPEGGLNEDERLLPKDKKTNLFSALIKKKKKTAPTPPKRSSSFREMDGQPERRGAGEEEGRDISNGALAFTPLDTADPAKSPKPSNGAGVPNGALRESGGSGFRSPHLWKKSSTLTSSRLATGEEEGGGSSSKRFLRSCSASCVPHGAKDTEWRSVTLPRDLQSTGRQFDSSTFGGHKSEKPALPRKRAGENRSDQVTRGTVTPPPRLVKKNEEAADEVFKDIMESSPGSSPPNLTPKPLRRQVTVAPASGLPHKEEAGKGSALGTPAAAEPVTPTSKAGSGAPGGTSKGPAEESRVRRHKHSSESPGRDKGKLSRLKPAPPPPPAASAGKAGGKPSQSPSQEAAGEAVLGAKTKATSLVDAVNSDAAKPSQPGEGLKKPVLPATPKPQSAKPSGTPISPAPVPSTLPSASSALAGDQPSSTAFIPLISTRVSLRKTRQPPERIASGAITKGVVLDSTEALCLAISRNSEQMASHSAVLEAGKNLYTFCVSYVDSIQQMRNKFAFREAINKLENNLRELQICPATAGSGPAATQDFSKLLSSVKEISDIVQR
Particulars: 1 uM, read-out: Percent Control (%). In outline: as §1

In assay [6] the target is T6, scanMAX Kinase assay panel (Homo sapiens, UniProt P36888, N841I).
T6 construct: purchased DiscoverX
T6 sequence (P36888 27-993 N841I): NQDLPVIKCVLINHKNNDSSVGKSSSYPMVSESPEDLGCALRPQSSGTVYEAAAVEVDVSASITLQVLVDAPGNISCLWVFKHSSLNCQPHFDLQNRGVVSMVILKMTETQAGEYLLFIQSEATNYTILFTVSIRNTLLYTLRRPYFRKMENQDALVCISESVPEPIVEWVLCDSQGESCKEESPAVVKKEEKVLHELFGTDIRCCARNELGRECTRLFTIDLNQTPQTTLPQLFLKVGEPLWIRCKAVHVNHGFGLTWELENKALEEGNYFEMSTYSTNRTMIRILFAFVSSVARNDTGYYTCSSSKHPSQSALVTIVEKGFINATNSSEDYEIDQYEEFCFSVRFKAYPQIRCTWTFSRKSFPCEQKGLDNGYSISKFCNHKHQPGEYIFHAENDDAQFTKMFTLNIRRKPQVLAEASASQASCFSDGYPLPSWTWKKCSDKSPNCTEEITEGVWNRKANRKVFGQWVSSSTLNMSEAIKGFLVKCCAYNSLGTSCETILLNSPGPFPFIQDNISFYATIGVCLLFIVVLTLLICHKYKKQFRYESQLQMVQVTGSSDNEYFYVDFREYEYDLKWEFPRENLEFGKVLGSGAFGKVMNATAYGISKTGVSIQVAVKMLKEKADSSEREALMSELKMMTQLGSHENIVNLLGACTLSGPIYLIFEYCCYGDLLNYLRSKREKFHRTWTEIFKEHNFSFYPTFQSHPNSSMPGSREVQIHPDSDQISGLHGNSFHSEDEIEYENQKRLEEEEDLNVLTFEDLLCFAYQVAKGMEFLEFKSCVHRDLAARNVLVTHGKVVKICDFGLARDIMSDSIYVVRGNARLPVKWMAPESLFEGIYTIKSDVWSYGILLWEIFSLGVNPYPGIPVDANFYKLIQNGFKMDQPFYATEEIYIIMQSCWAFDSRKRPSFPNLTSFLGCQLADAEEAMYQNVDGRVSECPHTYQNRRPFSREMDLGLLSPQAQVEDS
Particulars: FLT3 (N841I); 1 uM; read-out: Percent Control (%). Summed up: as §1

Assay [7] concerns the target T7, scanMAX Kinase assay panel (Homo sapiens, UniProt Q9UF33).
T7 construct: purchased DiscoverX
T7 sequence (Q9UF33 23-1036): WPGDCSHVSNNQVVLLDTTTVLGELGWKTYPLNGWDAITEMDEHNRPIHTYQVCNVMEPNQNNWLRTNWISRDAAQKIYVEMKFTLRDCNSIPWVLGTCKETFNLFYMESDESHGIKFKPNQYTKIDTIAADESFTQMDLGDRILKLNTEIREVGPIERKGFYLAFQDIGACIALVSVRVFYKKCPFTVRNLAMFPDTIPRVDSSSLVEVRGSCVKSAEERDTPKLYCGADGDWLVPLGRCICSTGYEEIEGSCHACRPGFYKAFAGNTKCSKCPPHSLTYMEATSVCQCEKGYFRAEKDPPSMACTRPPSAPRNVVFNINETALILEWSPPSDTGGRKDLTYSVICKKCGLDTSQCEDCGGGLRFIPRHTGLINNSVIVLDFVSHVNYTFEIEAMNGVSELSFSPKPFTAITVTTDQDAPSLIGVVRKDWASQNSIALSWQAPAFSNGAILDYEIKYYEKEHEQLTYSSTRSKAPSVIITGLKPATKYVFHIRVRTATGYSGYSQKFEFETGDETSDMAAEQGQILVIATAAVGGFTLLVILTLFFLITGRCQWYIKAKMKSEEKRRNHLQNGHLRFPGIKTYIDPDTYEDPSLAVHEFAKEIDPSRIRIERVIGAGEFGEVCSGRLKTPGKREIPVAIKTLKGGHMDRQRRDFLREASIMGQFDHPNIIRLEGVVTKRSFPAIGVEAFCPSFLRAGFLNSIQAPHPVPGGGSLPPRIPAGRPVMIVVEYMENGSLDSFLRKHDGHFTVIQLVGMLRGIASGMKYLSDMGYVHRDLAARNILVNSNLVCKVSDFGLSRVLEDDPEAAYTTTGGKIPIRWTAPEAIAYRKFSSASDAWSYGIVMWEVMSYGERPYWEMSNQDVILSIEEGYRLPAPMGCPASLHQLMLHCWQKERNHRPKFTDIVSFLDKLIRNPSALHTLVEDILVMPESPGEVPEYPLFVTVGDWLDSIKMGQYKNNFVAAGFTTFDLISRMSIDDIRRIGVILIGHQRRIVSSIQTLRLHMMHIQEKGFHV
Particulars: EPHA6; 1 uM; read-out: Percent Control (%). In outline: as §1

Assay [8] addresses T8, scanMAX Kinase assay panel (Homo sapiens, UniProt P53671).
T8 construct: purchased DiscoverX
Particulars: LIMK2; 1 uM; read-out: Percent Control (%). Summed up:
as §1

Molecules are shown by their SMILES. Where two headings read alike, the source gives them in different places.

Consider `Cc1ccc(C(=O)Nc2ccc(CN3CCN(C)CC3)c(C(F)(F)F)c2)cc1C#Cc1cnc2c(Nc3cnn(C)c3)cccn12` [Example 1, 4-methyl-3-((8-((1-methyl-1H-pyrazol-4-yl)amino)imidazo[1,2-a]pyridin-3-yl)ethynyl)-N-(4-((4-methylpiperazin-1-yl)methyl)-3-(trifluoromethyl)phenyl)benzamide], for which the remaining binding at 1 µM in assay [1] came to 61%; in assay [2], 10%; in assay [3] it was 100%; in assay [4] it was 96%; in assay [5] (ABL1 (F317L)-nonphosphorylated) it was 9%; in assay [5] (ABL1 (F317L)-phosphorylated), 2%. In addition, the remaining binding at 1 µM in assay [6] was determined as 0%; in assay [7], 2%; in assay [8], 3%.
Take `Cc1cn(-c2cc(NC(=O)c3ccc(C)c(C#Cc4cnc5c(Nc6cnn(C)c6)cccn45)c3)cc(C(F)(F)F)c2)cn1` [Example 12, 4-methyl-N-(3-(4-methyl-1H-imidazol-1-yl)-5-(trifluoromethyl)phenyl)-3-((8-((1-methyl-1H-pyrazol-4-yl)amino)imidazo[1,2-a]pyridin-3-yl)ethynyl)benzamide]: the remaining binding at 1 µM in assay [1] came out at 59%; in assay [2], 100%; in assay [3], 87%; in assay [4], 100%; in assay [5] (ABL1 (F317L)-nonphosphorylated), 3%; in assay [5] (ABL1 (F317L)-phosphorylated) it was 6%. The remaining binding at 1 µM in assay [6] is 28%; in assay [7], 19%; in assay [8], 50%.
With `Cc1ccc(NC(=O)C2(C(=O)Nc3ccc(F)cc3)CC2)cc1C#Cc1cnc2c(Nc3cnn(C(C)C)c3)cccn12` [Example 78], the remaining binding at 1 µM in assay [1] was determined as 82%; in assay [2], 100%; in assay [3], 87%; in assay [4], 100%; in assay [5] (ABL1 (F317L)-nonphosphorylated), 16%; in assay [5] (ABL1 (F317L)-phosphorylated), 85%. For the same compound, the remaining binding at 1 µM in assay [6] turned out to be 59%; in assay [7], 90%; in assay [8] it was 100%.
